Each block holds one compound with its values, some of them ahead of it. Active and inactive are the calls of the source.
Experiments:
[1] = biological target: T1, Sentrin-specific protease 6 (Homo sapiens, UniProt Q9GZR1); assay type: functional;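 note: Luminescence-based dose-response confirmatory assay of SENP6 inhibition, following up an ultra-high-throughput screen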
T1 sequence (Q9GZR1 whole entry): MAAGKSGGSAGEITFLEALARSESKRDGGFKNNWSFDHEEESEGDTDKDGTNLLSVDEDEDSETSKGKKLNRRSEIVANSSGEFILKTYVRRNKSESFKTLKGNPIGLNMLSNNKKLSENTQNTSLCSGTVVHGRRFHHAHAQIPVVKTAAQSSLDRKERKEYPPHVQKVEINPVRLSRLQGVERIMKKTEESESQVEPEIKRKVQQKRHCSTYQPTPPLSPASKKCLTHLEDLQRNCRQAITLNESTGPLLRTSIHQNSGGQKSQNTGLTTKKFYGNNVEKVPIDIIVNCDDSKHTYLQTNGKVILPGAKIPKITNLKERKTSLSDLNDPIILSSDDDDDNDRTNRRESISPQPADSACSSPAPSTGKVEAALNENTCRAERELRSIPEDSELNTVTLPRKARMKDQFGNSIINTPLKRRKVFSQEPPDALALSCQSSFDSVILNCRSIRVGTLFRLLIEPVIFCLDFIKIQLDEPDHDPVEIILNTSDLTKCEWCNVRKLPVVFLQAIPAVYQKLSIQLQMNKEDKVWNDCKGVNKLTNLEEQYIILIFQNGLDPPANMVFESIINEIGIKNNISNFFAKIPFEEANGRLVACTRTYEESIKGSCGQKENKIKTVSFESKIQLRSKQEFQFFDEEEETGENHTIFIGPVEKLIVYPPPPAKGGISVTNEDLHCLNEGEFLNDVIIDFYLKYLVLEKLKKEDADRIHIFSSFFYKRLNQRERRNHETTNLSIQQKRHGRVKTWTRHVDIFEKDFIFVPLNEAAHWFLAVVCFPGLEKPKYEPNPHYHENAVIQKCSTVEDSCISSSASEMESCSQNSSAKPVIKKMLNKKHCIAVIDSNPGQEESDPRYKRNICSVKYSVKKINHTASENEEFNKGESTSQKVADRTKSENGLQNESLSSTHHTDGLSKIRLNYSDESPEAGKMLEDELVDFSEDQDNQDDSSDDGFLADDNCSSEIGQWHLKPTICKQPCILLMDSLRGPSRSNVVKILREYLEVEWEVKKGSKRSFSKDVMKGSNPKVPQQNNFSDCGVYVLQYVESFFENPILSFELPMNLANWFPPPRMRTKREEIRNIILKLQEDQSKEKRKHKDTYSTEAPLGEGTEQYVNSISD

[2] = biological target: T2, Rac GTPase-activating protein 1 (Homo sapiens, UniProt Q9H0H5); assay: blockers of MgcRacGAP-driven Rac1 GTP hydrolysis – biochemical, ADP Hunter fluorescence, primary and confirmatory, confirmation (AID 624330); assay type: functional
T2 sequence (Q9H0H5 whole entry): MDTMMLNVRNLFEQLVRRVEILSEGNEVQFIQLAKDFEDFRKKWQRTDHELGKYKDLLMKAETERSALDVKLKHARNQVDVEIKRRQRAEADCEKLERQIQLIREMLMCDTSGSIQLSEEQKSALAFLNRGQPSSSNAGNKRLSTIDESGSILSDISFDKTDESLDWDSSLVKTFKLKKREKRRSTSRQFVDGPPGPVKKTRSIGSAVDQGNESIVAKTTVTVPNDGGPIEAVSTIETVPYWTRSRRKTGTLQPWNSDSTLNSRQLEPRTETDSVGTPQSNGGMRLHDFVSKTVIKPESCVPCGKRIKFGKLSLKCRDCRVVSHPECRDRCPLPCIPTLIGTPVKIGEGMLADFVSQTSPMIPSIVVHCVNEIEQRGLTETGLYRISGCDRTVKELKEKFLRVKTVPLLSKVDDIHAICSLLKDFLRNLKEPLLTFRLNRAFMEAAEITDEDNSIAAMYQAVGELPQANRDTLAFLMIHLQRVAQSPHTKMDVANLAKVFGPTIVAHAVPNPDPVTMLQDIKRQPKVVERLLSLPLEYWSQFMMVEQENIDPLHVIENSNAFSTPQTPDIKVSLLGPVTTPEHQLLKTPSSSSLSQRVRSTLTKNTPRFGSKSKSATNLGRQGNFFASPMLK

[3] = biological target: Heat shock protein HSP 90-alpha (Homo sapiens, UniProt P07900); assay type: functional, organism-based
[4] = biological target: T3, 1-phosphatidylinositol 4,5-bisphosphate phosphodiesterase beta-3 (Homo sapiens, UniProt Q01970); assay: Fluorescence-based biochemical high throughput dose response assay to identify inhibitors of phospholipase C isozymes (PLC-B3).
T3 sequence (Q01970 whole entry): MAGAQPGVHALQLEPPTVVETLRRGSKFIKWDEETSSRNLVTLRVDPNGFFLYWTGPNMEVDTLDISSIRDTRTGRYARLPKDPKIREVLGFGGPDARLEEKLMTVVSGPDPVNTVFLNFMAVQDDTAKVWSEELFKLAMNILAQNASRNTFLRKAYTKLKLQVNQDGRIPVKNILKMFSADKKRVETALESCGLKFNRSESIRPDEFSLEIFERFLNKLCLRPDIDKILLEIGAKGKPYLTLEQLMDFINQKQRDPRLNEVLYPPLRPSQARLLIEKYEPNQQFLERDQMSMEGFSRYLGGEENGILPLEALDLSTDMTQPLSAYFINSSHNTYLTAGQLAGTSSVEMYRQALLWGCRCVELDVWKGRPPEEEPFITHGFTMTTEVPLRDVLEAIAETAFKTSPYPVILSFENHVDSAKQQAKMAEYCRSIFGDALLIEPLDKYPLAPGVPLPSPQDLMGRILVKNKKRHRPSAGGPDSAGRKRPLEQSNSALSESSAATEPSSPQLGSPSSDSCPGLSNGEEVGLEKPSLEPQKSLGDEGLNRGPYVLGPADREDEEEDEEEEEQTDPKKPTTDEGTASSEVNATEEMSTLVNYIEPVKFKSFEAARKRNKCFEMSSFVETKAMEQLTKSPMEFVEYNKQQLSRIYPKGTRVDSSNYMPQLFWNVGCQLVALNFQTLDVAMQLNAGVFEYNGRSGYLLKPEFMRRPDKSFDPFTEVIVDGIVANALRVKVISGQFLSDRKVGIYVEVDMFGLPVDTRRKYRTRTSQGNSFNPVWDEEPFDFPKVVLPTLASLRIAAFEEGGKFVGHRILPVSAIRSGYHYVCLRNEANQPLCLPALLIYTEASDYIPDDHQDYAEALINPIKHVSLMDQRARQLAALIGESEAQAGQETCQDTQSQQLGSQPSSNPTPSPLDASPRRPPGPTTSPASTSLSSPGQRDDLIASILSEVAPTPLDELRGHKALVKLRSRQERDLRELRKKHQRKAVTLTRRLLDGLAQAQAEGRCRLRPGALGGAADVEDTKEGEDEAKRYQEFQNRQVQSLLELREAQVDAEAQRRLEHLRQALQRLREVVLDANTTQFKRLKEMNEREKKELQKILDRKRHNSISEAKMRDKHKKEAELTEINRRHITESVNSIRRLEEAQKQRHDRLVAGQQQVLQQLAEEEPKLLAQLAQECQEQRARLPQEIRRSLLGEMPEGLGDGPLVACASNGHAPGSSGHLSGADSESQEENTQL

Compound: CN(C)S(=O)(=O)Oc1cccc(C(=O)Nc2ccc(Cl)c(Cl)c2)c1
IC50 [1]: 13.6 µM (active)

Compound: Cc1ccc2[nH]c(/C(C#N)=C/c3ccc(O)c(O)c3)nc2c1
IC50 [1]: 27.9 µM (active)
IC50 [2]: 22.3 µM (active)

Compound: COC(=O)C1CN(C#N)N(c2ccc(Cl)cc2)C12c1ccccc1-c1ccccc12 (stereo not drawn)
AC50 [3]: 2.75 µM (active)

IC50 [4]: > 122 µM (inactive)
Compound: O=C(NN1C(=O)CSC1=S)C(=O)NN1C(=O)CSC1=S

Compound: O=C1NC(=S)S/C1=C\C=C\c1ccc([N+](=O)[O-])o1
AC50 [3]: 1.73 µM (active)
IC50 [2]: 37.7 µM (active)
IC50 [4]: > 122 µM (inactive)

From ChEMBL document CHEMBL1201862, “PubChem BioAssay data set” (2004)
